pIC50: −log10 of the molar value.
Experiments:
[1] = system: HeLa cells (cervical cancer); test: Cell proliferation measurement (Cell Titer Glo), HeLa; type: cell-based; conditions: Homo sapiens, 72 h treatment, read-out: Anti-proliferation IC50 HeLa (Cervical cancer)
Method: (§1) The antiproliferative activity of the compounds of the general formula (I) was examined in vitro in human cancer cells. For this purpose, 1000 cells (or 500 HeLa cells) were plated in 384-well plates with appropriate growth medium and incubated at 37° C. overnight. After 24 h, the cells on the test plate were treated with the compounds of the general formula (I) as and incubated at 37° C. for 72 h. The compounds were added to the cells by means of an HP D300 digital dispenser in a 10 (or more)-step dilution series. As control, the cells were treated with vehicle (DMSO at 0.3% final concentration). After 72 h, the cells were treated with 20 μl/well of 50% CTG solution in PBS (Promega Cell Titer Glo (catalogue #G755B and G756B)) and incubated at room temperature for 10 min, and luminescence was measured by means of a VICTOR V (Perkin Elmer), in order to determine cell viability at the end of treatment. The percentage effect on cell growth and the IC50 derived therefrom were determined for each test substance using the values from untreated wells (=percent viability). The IC50 values were calculated using a 4-parameter fit.

[2] = system: SK-MEL-3 (melanoma); test: Cell proliferation measurement (Cell Titer Glo), SK-MEL-3; type: cell-based; conditions: Homo sapiens, SK-MEL3, SK-MEL-3 cells, 72 h treatment, read-out: Anti-proliferation IC50 SK-MEL-3 (melanoma)
Method: as §1

[3] = molecular target: T1, human full length PDE3A (Homo sapiens, UniProt Q14432); test: PDE3A enzyme inhibition (3H-cAMP Scintillation Proximity Assay); type: biochemical; conditions: PDE3A cell extract from Sf9 cells, 60 min room temperature; read-out: Target IC50 PDE3A IC50
T1 construct: Sf9 cells overexpressing human full length PDE3A; purchased SB Drug Discovery, UK; host or cells: Sf9 cells (cell extract)
T1 sequence (Q14432 whole entry): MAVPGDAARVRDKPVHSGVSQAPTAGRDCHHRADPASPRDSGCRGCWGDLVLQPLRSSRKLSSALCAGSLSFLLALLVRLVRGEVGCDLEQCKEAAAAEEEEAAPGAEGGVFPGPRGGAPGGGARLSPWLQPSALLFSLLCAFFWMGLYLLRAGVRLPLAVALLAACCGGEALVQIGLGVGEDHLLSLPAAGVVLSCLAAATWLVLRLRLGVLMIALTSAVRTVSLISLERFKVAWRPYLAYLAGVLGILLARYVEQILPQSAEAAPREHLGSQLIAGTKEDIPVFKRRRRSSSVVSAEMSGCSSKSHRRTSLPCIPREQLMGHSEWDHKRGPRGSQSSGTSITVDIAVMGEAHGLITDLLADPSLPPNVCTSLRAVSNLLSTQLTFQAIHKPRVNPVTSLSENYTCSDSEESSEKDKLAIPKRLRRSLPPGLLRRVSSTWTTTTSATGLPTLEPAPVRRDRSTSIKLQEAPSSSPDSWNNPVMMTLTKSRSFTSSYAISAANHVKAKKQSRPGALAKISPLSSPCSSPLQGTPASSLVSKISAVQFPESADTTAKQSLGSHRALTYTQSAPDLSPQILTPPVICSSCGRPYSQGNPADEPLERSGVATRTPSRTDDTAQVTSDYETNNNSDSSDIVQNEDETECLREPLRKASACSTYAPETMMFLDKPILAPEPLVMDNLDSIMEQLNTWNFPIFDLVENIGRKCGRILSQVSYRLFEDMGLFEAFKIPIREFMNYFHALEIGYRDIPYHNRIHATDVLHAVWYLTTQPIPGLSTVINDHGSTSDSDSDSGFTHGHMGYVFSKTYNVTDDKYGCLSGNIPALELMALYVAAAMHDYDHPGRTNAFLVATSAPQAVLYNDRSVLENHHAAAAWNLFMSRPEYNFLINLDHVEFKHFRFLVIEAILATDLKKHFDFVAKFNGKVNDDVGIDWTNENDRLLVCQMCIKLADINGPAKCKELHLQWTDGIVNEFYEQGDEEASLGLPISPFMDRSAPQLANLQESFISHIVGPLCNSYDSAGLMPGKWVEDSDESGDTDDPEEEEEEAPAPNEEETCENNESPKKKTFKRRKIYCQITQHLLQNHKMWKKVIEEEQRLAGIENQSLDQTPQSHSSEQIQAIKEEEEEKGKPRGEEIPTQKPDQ
Method: (§2) The commercially available 3H-cAMP Scintillation Proximity Assay (SPA, Perkin Elmer) system was used for enzyme inhibition studies. For the determination of the in vitro effect of test substances on the PDE3A reactions 2 μl of the respective test compound solution in DMSO (serial dilutions) were is placed in wells of microtiter plates (Isoplate-96/200W; Perkin Elmer). 50 μl of a dilution of PDE3A cell extract from Sf9 cells overexpressing human full length PDE3A (SB Drug Discovery, UK) in buffer A (50 mM Tris/HCl pH 7.5, 8.3 mM MgCl2, 1.7 mM EDTA, 0.2% BSA) was added. The dilution of the PDE3A cell extract was chosen such that the reaction kinetics was linear and less than 70% of the substrate was consumed (typical dilution 1:5000). The reaction was started by addition of 50 μl (0.025 μCi) of 1:2000 in buffer A w/o BSA diluted substrate [8-3H] adenosine 3′,5′-cyclic phosphate (1 μCi/μl; Perkin Elmer). After incubation at room temperature for 60 min, the reaction was stopped by addition of 25 μl of a suspension containing 18 mg/ml yttrium scintillation proximity beads (Perkin Elmer) in water. The microtiter plates were sealed and measured in a Microbeta scintillation counter (PerkinElmer Wallac). IC50 values were determined from sigmoidal curves by plotting percentage PDE3A activity vs log compound concentration.

[4] = molecular target: T2, human full length PDE3B (Homo sapiens, UniProt Q13370); test: PDE3B enzyme inhibition (3H-cAMP Scintillation Proximity Assay); type: biochemical; conditions: PDE3B cell extract from Sf9 cells, 60 min room temperature; read-out: Target IC50 PDE3B IC50
T2 construct: Sf9 cells overexpressing human full length PDE3B; purchased SB Drug Discovery, UK; host or cells: Sf9 cells (cell extract)
T2 sequence (Q13370 whole entry): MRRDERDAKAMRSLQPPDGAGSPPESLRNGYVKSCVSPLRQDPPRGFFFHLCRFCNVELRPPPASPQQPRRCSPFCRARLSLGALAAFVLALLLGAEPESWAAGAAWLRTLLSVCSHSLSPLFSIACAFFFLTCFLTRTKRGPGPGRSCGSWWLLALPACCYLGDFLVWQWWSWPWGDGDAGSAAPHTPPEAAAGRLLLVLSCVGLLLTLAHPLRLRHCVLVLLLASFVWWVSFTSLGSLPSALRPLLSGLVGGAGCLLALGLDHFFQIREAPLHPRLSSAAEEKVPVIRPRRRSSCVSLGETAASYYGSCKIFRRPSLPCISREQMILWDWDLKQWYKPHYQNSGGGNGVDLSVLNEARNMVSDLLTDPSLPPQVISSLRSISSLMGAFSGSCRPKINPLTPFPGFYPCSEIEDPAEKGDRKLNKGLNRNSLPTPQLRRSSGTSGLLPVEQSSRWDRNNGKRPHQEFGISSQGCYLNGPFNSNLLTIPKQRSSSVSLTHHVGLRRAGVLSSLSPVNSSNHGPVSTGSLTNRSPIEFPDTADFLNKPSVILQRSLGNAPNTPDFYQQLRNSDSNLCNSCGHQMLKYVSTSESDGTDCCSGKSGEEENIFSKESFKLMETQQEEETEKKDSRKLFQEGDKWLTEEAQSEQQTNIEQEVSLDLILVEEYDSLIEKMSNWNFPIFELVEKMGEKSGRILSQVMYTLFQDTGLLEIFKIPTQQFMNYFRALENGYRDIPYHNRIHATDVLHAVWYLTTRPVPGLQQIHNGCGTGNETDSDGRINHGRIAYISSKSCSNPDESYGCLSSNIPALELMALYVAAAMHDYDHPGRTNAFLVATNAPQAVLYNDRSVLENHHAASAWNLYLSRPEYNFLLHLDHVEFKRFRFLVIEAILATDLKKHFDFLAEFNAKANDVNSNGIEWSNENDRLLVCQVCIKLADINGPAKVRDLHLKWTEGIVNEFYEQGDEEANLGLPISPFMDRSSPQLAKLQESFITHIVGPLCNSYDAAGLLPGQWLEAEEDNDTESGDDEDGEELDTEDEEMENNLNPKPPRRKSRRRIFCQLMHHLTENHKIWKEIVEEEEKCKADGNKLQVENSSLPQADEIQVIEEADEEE
Method: as §2, with “PDE3B” for “PDE3A”, “were” for “were is”, “1:6000).” for “1:5000).”

Structure (SMILES)	pIC50 [1]	pIC50 [2]	pIC50 [3]	pIC50 [4]
O=C1CCC(c2ccc(C3=CCCC3)c(F)c2)=NN1 [Example 80, 6-[4-(cyclopent-1-en-1-yl)-3-fluorophenyl]-4,5-dihydropyridazin-3(2H)-one]	8.57	8.38	6.66	6.51
N#Cc1cc(C2=NNC(=O)CC2)ccc1N1CCOCC1 [Example 15, 2-(Morpholin-4-yl)-5-(6-oxo-1,4,5,6-tetrahydropyridazin-3-yl)benzonitrile]	7.35	7.16	6.96	7.11
Cc1ccc(-c2ccc(C3=NNC(=O)CC3)cc2C)cn1 [Example 93, 6-[3-methyl-4-(6-methylpyridin-3-yl)phenyl]-4,5-dihydropyridazin-3(2H)-one]	8.27	7.61	7.42	7.31
O=C1CCC(c2cc(F)c(N3CCCCC3)c(F)c2)=NN1 [Example 16, 6-[3,5-Difluoro-4-(piperidin-1-yl)phenyl]-4,5-dihydropyridazin-3(2H)-one]	8.31	8.01	6.39	6.89
Cc1ncc(-c2ccc(C3=NNC(=O)CC3)cc2C)cn1 [Example 92, 6-[3-methyl-4-(2-methylpyrimidin-5-yl)phenyl]-4,5-dihydropyridazin-3(2H)-one]	7.37	< 7.00	7.21	7.06
CCc1ccccc1-c1ccc(C2=NNC(=O)CC2)cc1C [Example 117, 6-(2′-ethyl-2-methyl[1,1′-biphenyl]-4-yl)-4,5-dihydropyridazin-3(2H)-one]	7.29	< 7.00	6.27	6.36
Cc1cnccc1-c1ccc(C2=NNC(=O)CC2)cc1F [Example 73, 6-[3-fluoro-4-(3-methylpyridin-4-yl)phenyl]-4,5-dihydropyridazin-3(2H)-one]	8.02	7.81	7.28	7.41
Cc1cc(C2=NNC(=O)CC2)ccc1-c1ccccc1C#N [Example 99, 2′-methyl-4′-(6-oxo-1,4,5,6-tetrahydropyridazin-3-yl)[1,1′-biphenyl]-2-carbonitrile]	7.40	< 7.00	6.55	6.28
Cc1cc(C2=NNC(=O)CC2)ccc1-c1cccnc1 [Example 2, 6-[3-Methyl-4-(pyridin-3-yl)phenyl]-4,5-dihydropyridazin-3(2H)-one]	8.24	7.84	7.19	7.17
O=C1CCC(c2ccc(-c3ccc(F)c(Cl)c3)c(F)c2)=NN1 [Example 83, 6-(3′-chloro-2,4′-difluoro[1,1′-biphenyl]-4-yl)-4,5-dihydropyridazin-3(2H)-one]	7.40	7.21	6.25	6.55
Cc1ccc(-c2ccc(C3=NNC(=O)CC3)cc2C)cc1 [Example 121, 6-(2,4′-dimethyl[1,1′-biphenyl]-4-yl)-4,5-dihydropyridazin-3(2H)-one]	8.15	7.47	6.64	6.64
Cc1cc(C2=NNC(=O)CC2)ccc1-c1cc(F)ccc1F [Example 98, 6-(2′,5′-difluoro-2-methyl[1,1′-biphenyl]-4-yl)-4,5-dihydropyridazin-3(2H)-one]	7.90	7.19	6.74	6.92
Cc1cccc(-c2ccc(C3=NNC(=O)CC3)cc2C)c1 [Example 120, 6-(2,3′-dimethyl[1,1′-biphenyl]-4-yl)-4,5-dihydropyridazin-3(2H)-one]	7.34	< 7.00	6.70	6.74
O=C1CCC(c2ccc(-c3ccncc3Cl)c(F)c2)=NN1 [Example 69, 6-[4-(3-chloropyridin-4-yl)-3-fluorophenyl]-4,5-dihydropyridazin-3(2H)-one]	7.74	7.41	6.85	7.02
O=C1CCC(c2ccc(-c3ccc(F)cc3)c(F)c2)=NN1 [Example 8, 6-(2,4′-Difluorobiphenyl-4-yl)-4,5-dihydropyridazin-3(2H)-one]	8.90	8.30	7.05	7.31
O=C1CCC(c2ccc(-c3cccc4[nH]ccc34)c(F)c2)=NN1 [Example 75, 6-[3-fluoro-4-(1H-indol-4-yl)phenyl]-4,5-dihydropyridazin-3(2H)-one]	7.56	7.36	7.00	6.92
CNc1ccc(C2=NNC(=O)CC2)cc1C(F)(F)F [Example 23, 6-[4-(Methylamino)-3-(trifluoromethyl)phenyl]-4,5-dihydropyridazin-3(2H)-one]	7.24	7.17	6.35	6.33
O=C1CCC(c2ccc(-c3ccc(F)nc3)c(F)c2)=NN1 [Example 71, 6-[3-fluoro-4-(6-fluoropyridin-3-yl)phenyl]-4,5-dihydropyridazin-3(2H)-one]	8.11	7.94	6.92	6.92
Cc1cc(C2=NNC(=O)CC2)ccc1-c1cc(F)cc(F)c1 [Example 105, 6-(3′,5′-difluoro-2-methyl[1,1′-biphenyl]-4-yl)-4,5-dihydropyridazin-3(2H)-one]	7.56	< 7.00	6.70	6.70
Nc1cc(-c2ccc(C3=NNC(=O)CC3)cc2F)ccc1Cl [Example 9, 6-(3′-Amino-4′-chloro-2-fluorobiphenyl-4-yl)-4,5-dihydropyridazin-3(2H)-one]	8.81	8.67	7.05	7.46
O=C1CCC(c2cc(F)c(N3CCC(F)(F)CC3)c(F)c2)=NN1 [Example 12, 6-[4-(4,4-Difluoropiperidin-1-yl)-3,5-difluorophenyl]-4,5-dihydropyridazin-3(2H)-one]	8.26	7.94	6.96	7.21
Cc1cc(C2=NNC(=O)CC2)ccc1-c1cc(F)c(F)c(F)c1 [Example 96, 6-(3′,4′,5′-trifluoro-2-methyl[1,1′-biphenyl]-4-yl)-4,5-dihydropyridazin-3(2H)-one]	7.73	< 7.00	6.51	6.59
N#Cc1ccc(F)c(-c2ccc(C3=NNC(=O)CC3)cc2F)c1 [Example 89, 2′,6-difluoro-4′-(6-oxo-1,4,5,6-tetrahydropyridazin-3-yl)[1,1′-biphenyl]-3-carbonitrile]	7.13	< 7.00	6.85	6.82
O=C1CCC(c2ccc(-c3ccccc3C(F)(F)F)c(F)c2)=NN1 [Example 61, 6-[2-fluoro-2′-(trifluoromethyl)[1,1′-biphenyl]-4-yl]-4,5-dihydropyridazin-3(2H)-one]	7.71	7.42		

From US11897867B2, “6-phenyl-4,5-dihydropyridazin-3(2H)-one derivatives as PDE3A and PDE3B inhibitors for treating cancer” (Bayer Aktiengesellschaft, priority 2017, dated 2024)
